Assay results: patent US12077503B2, “Substituted cyclic amides and their use as herbicides” (FMC CORPORATION, priority 2015, dated 2024)

Columns and labels:
Format in all cases: in vivo
[1] = test system: giant foxtail (Setaria faberi); assay: Test G Pre-Emergence Protocol; settings: Setaria faberi, pre-emergence, 312 h, evaluated after 13 days
Method in brief: (§1)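 Visual injury (0–100) at day 13 after a single pre-emergence spray. Rates: 15.625, 62.5, 250 g/ha in acetone–water 50:50 with 0.5% Tween 20. Growth conditions: 24/16° C, 14 h light, 65% humidity.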

[2] = test system: barnyardgrass (Echinochloa crus-galli); assay: Test G Pre-Emergence Protocol; settings: Echinochloa crus-galli, pre-emergence, 312 h, evaluated after 13 days
Method in brief: as §1

[3] = test system: redroot pigweed (Amaranthus retroflexus); assay: Test G Pre-Emergence Protocol; settings: Amaranthus retroflexus, pre-emergence, 312 h, evaluated after 13 days
Method in brief: as §1

[4] = test system: velvetleaf (Abutilon theophrasti); assay: Test G Pre-Emergence Protocol; settings: Abutilon theophrasti, pre-emergence, 312 h, evaluated after 13 days
Method in brief: as §1

corn (Zea mays) [5] = assay: Test G Pre-Emergence Protocol; settings: Zea mays, pre-emergence, 312 h, evaluated after 13 days
Method in brief: as §1

[6] = test system: ivy-leaved morning glory (Ipomoea hederacea); assay: Test G Pre-Emergence Protocol; settings: Ipomoea, pre-emergence, 312 h, evaluated after 13 days
Method in brief: as §1

[7] = test system: giant foxtail (Setaria faberi); assay: Test G Post-Emergence Protocol; settings: Setaria faberi, post-emergence, 312 h
Method in brief: (§2)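 Foliar application was made 8 days after sowing, using an aqueous spray of the active in acetone/water (50:50) with 0.5% Tween 20, at doses of 15.625, 62.5 or 250 g/ha. Injury was assessed 13 days later, where 100 meant the plant was fully damaged.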

[8] = test system: barnyardgrass (Echinochloa crus-galli); assay: Test G Post-Emergence Protocol; settings: Echinochloa crus-galli, post-emergence, 312 h
Method in brief: as §2

[9] = test system: redroot pigweed (Amaranthus retroflexus); assay: Test G Post-Emergence Protocol; settings: Amaranthus retroflexus, post-emergence, 312 h
Method in brief: as §2

[10] = test system: velvetleaf (Abutilon theophrasti); assay: Test G Post-Emergence Protocol; settings: Abutilon theophrasti, post-emergence, 312 h
Method in brief: as §2

corn (Zea mays) [11] = assay: Test G Post-Emergence Protocol; settings: Zea mays, post-emergence, 312 h
Method in brief: as §2

[12] = test system: ivy-leaved morning glory (Ipomoea hederacea); assay: Test G Post-Emergence Protocol; settings: Ipomoea, post-emergence, 312 h
Method in brief: as §2

`CN1C[C@@H](c2cncc(F)c2)[C@H](C(=O)Nc2cccc(F)c2F)C1=O` (racemic) [Compound 1482] showed a pest or weed control at 15.625 g/ha ([1]; 15.625 g ai/ha, read-out: Foxtail, Giant damage rating (100=total damage to plant; 0=no damage to plant)) of 20%, a pest or weed control at 62.5 g/ha ([1]; 62.5 g ai/ha, 100=total damage to plant, 0=no damage to plant, read-out: plant damage rating, Foxtail, Giant) of 60% and a pest or weed control at 250 g/ha ([1]; 250 g ai/ha, read-out: Foxtail, Giant damage rating (100=total damage to plant; 0=no damage to plant)) of 90%. It also gave a pest or weed control at 15.625 g/ha ([2]; 15.625 g ai/ha, read-out: Barnyard grass damage rating (100=total damage to plant; 0=no damage to plant)) of 10%, a pest or weed control at 62.5 g/ha ([2]; 62.5 g ai/ha, 100=total damage to plant, 0=no damage to plant, read-out: plant damage rating, Barnyardgrass) of 30% and a pest or weed control at 250 g/ha ([2]; 250 g ai/ha, read-out: Barnyardgrass damage rating (100=total damage to plant; 0=no damage to plant)) of 80%. The pest or weed control at 15.625 g/ha ([3]; 15.625 g ai/ha, read-out: Pigweed, Redroot damage rating (100=total damage to plant; 0=no damage to plant)) was 0%, the pest or weed control at 62.5 g/ha ([3]; 62.5 g ai/ha, 100=total damage to plant, 0=no damage to plant, read-out: plant damage rating, Pigweed, Redroot) was 0% and the pest or weed control at 250 g/ha ([3]; 250 g ai/ha, read-out: Pigweed, Redroot damage rating (100=total damage to plant; 0=no damage to plant)) was 10%. The pest or weed control at 15.625 g/ha ([4]; 15.625 g ai/ha, read-out: Velvetleaf damage rating (100=total damage to plant; 0=no damage to plant)) was 0%, the pest or weed control at 62.5 g/ha ([4]; 62.5 g ai/ha, 100=total damage to plant, 0=no damage to plant, read-out: plant damage rating, Velvetleaf) was 0% and the pest or weed control at 250 g/ha ([4]; 250 g ai/ha, read-out: Velvetleaf damage rating (100=total damage to plant; 0=no damage to plant)) was 10%. It also gave a plant injury at 15.625 g/ha (corn (Zea mays) [5]; 15.625 g ai/ha, read-out: Corn damage rating (100=total damage to plant; 0=no damage to plant)) of 30%, a plant injury at 62.5 g/ha (corn (Zea mays) [5]; 62.5 g ai/ha, 100=total damage to plant, 0=no damage to plant, read-out: plant damage rating, Corn) of 40% and a plant injury at 250 g/ha (corn (Zea mays) [5]; 250 g ai/ha, read-out: Corn damage rating (100=total damage to plant; 0=no damage to plant)) of 30%. For the same compound, the pest or weed control at 15.625 g/ha ([6]; 15.625 g ai/ha, read-out: Morning-glory, Ivy-leaved damage rating (100=total damage to plant; 0=no damage to plant)) was 0%, the pest or weed control at 62.5 g/ha ([6]; 62.5 g ai/ha, 100=total damage to plant, 0=no damage to plant, read-out: plant damage rating, Morningglory, Ivy-leaved) was 0% and the pest or weed control at 250 g/ha ([6]; 250 g ai/ha, read-out: Morningglory, Ivy-leaved damage rating (100=total damage to plant; 0=no damage to plant)) was 10%. The pest or weed control at 15.625 g/ha ([7]; 15.625 g ai/ha, evaluated after 13 days (100=total damage to plant; 0=no damage to plant), read-out: Foxtail, Giant damage rating) was 30%, the pest or weed control at 62.5 g/ha ([7]; 62.5 g ai/ha, evaluated after 13 days, read-out: Foxtail, Giant damage rating (100=total damage to plant; 0=no damage to plant)) was 30% and the pest or weed control at 250 g/ha ([7]; 250 g ai/ha, evaluated after 13 days, read-out: damage to plant, Foxtail, Giant (100=total damage to plant; 0=no damage to plant)) was 60%. For the same compound, the pest or weed control at 15.625 g/ha ([8]; 15.625 g ai/ha, evaluated after 13 days (100=total damage to plant; 0=no damage to plant), read-out: Barnyardgrass damage rating) was 30%, the pest or weed control at 62.5 g/ha ([8]; 62.5 g ai/ha, evaluated after 13 days, read-out: Barnyardgrass damage rating (100=total damage to plant; 0=no damage to plant)) was 30% and the pest or weed control at 250 g/ha ([8]; 250 g ai/ha, evaluated after 13 days, read-out: damage to plant, Barnyardgrass (100=total damage to plant; 0=no damage to plant)) was 60%. For the same compound, the pest or weed control at 15.625 g/ha ([9]; 15.625 g ai/ha, evaluated after 13 days (100=total damage to plant; 0=no damage to plant), read-out: Pigweed, Redroot damage rating) was 0%, the pest or weed control at 62.5 g/ha ([9]; 62.5 g ai/ha, evaluated after 13 days, read-out: Pigweed, Redroot damage rating (100=total damage to plant; 0=no damage to plant)) was 0% and the pest or weed control at 250 g/ha ([9]; 250 g ai/ha, evaluated after 13 days, read-out: damage to plant, Pigweed, Redroot (100=total damage to plant; 0=no damage to plant)) was 0%. The pest or weed control at 15.625 g/ha ([10]; 15.625 g ai/ha, evaluated after 13 days (100=total damage to plant; 0=no damage to plant), read-out: Velvetleaf damage rating) was 0%, the pest or weed control at 62.5 g/ha ([10]; 62.5 g ai/ha, evaluated after 13 days, read-out: Velvetleaf damage rating (100=total damage to plant; 0=no damage to plant)) was 0% and the pest or weed control at 250 g/ha ([10]; 250 g ai/ha, evaluated after 13 days, read-out: damage to plant, Velvetleaf (100=total damage to plant; 0=no damage to plant)) was 10%. For the same compound, the plant injury at 15.625 g/ha (corn (Zea mays) [11]; 15.625 g ai/ha, evaluated after 13 days (100=total damage to plant; 0=no damage to plant), read-out: Corn damage rating) was 20%, the plant injury at 62.5 g/ha (corn (Zea mays) [11]; 62.5 g ai/ha, evaluated after 13 days, read-out: Corn damage rating (100=total damage to plant; 0=no damage to plant)) was 30% and the plant injury at 250 g/ha (corn (Zea mays) [11]; 250 g ai/ha, evaluated after 13 days, read-out: damage to plant, Corn (100=total damage to plant; 0=no damage to plant)) was 30%. For the same compound, the pest or weed control at 15.625 g/ha ([12]; 15.625 g ai/ha, evaluated after 13 days (100=total damage to plant; 0=no damage to plant), read-out: Morningglory, Ivy-leaved damage rating) was 0%, the pest or weed control at 62.5 g/ha ([12]; 62.5 g ai/ha, evaluated after 13 days, read-out: Morningglory, Ivy-leaved damage rating (100=total damage to plant; 0=no damage to plant)) was 0% and the pest or weed control at 250 g/ha ([12]; 250 g ai/ha, evaluated after 13 days, read-out: damage to plant, Morningglory, Ivy-leaved (100=total damage to plant; 0=no damage to plant)) was 0%.
